Results reported in patent publication US20050256161A1, “Melanin concentrating hormone receptor antagonists” (priority 2003, published 2005).

Key:
[1] = biological target: T1, rat MCH 1 receptor (rMCH1R) (Rattus norvegicus, UniProt P97639); assay: Ligand binding assay (125I native-MCH), rMCH; conditions: rMCH1R expressed in HEK 293, membranes, 0.2 nM 125I native-MCH
T1 construct: expressed in transfected cells; host or cells: HEK 293 (membrane preparation)
Experimental: (§1) Human embryonic kidney cells (293 total) expressing either human, rat, or mouse MCH receptor were harvested from 150 mm culture dishes using PBS. Spinning at 1500 rpm for 2 minutes initially pelleted cells. The resulting pellet was then homogenized in 15 mL ice cold sucrose buffer (25 mM HEPES, 0.3 M sucrose, pH 7.4) with a motorized, glass fitted, Teflon® homogenizer. The homogenate was centrifuged at 48,000×g at 4° C. for 10 minutes, resuspended in 15 mL assay buffer (25 mM HEPES, 10 mM MgCl2, 0.2% BSA, 0.1 mg/mL STI, 0.1 mg/mL Pefabloc®, 1 μM Phosphoramidon, pH 7.4) with a Tissue-Tearor® (Biospec Products) and centrifuged again at 48,000×g for 10 minutes. The pellet was homogenized for a third time in 15 mL assay buffer using the Tissue-Tearor® and again centrifuged at 48,000×g for 10 minutes. The resulting pellet was resuspended in assay buffer at a wet weight concentration of 10-20 mg/mL.
(§2) Binding assays were determined as described below using mouse, rat or human MCH 1 receptors (mMCH1R, rMCH1R, and hMCH1R, respectively) expressed in HEK 293; IC50 values were calculated.
(§3) Binding assays were performed in 96-well U-bottom plates. Membranes (100 μg tissue) were incubated at 30° C. for 90 minutes in assay buffer with various peptides in the presence of 0.2 nM 125I native-MCH (Perkin-Elmer Life Sciences, Boston, Mass.) in 100 μL total volume. Non-specific binding was assessed in the presence of 1 μM cold native-MCH. The reaction was terminated by rapid filtration through Unfilter-96 GF/C glass fiber filter plates (FilterMate® 196 Harvester, Packard Instrument Co., Meriden, Conn.) pre-soaked in PBS/0.5% BSA, followed by three washes with 300 μL ice-cold water. Bound radioactivity was determined using a TopCount® microplate scintillation and luminescence counter (Packard Instrument Co., Meriden, Conn.). Nonlinear regression analyses of drug concentration curves were performed using GraphPad Prism® (GraphPad Software, Inc., San Diego, Calif.).

human MCH receptor = biological target: T2, human MCH receptor (Homo sapiens, UniProt Q99705); assay: hMCH FLIPR calcium mobilization functional assay; type: cell-based
T2 construct: expressed in transfected cells
T2 sequence (Q99705 whole entry): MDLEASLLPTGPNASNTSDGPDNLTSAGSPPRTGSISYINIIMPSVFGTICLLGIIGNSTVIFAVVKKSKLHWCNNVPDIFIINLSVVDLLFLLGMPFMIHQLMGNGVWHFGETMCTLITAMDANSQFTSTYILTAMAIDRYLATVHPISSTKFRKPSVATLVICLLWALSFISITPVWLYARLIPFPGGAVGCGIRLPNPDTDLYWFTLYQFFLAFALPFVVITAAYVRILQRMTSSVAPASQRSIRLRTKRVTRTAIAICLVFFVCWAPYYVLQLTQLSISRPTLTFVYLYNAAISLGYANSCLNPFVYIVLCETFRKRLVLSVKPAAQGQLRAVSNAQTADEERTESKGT

rat MCH1 receptor = biological target: T3, rat MCH1 receptor (Rattus norvegicus, UniProt P97639); assay: rMCH FLIPR calcium mobilization functional assay; type: cell-based; conditions: CHOK1-Gqi cells
T3 construct: expressed in transfected cells
T3 sequence (P97639 whole entry): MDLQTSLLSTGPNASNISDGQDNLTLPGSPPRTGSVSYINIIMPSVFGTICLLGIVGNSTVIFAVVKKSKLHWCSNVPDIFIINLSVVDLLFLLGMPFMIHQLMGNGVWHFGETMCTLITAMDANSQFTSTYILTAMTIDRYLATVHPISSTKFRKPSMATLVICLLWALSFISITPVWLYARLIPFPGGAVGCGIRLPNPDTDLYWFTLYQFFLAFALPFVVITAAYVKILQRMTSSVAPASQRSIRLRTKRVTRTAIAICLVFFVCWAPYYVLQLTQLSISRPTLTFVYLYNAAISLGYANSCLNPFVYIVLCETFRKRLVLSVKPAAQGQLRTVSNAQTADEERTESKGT
Experimental: Pharmacological analyses were conducted using either a HT-PS100 device (Axiom Biotechnologies, San Diego, Calif.), which provides high-resolution dose-response fluorometric measurements of [Ca^++]i mobilization, or using a FLIPR® device (Molecular Devices, Sunnyvale, Calif.).
Materials: Pharmacological analysis was conducted using a FLIPR® device (Molecular Devices, Sunnyvale, Calif.). CHOK1-Gqi cells were stably transfected with the rat MCH1 receptor and maintained under G418 antibiotic pressure. FLIPR® assay buffer consisted of phenol red-free DMEM+2.5 mM probenecid. MCH peptide (Amgen, Inc.) was reconstituted in assay buffer and served as the positive agonist control for all experiments. Test compounds were prepared as 10 mM stocks in 100% DMSO and diluted to a top end working concentration of 10 μM in 96 well black, flat bottom, collagen-I coated plates (Becton Dickinson, Bedford, Mass.).
Methods: CHOK1-Gqi cells stably expressing MCH1R were maintained in Dulbeco's modified Eagle's medium (GIBCO/Life Technologies, Rockville, Md.) supplemented with 2 mM glutamine and 10% dialyzed fetal bovine serum (HyClone, Logan, Utah) at 37° C., 5% CO2. Cells were harvested by 10′ treatment with Versene (GIBCO/Life Technologies) followed by trituration, washing twice with cold (4° C.) hybridoma medium (Serum/Protein free, with L-glutamine, sodium bicarbonate, MOPS buffer) (Sigma-Aldrich Corp, St. Louis, Mo.) and replated onto 96 well black, flat bottom, collagen-I coated plates to a density of 10,000 cells/well. The cells were then loaded with the fluorescent calcium indicator Fura-2 (Molecular Probes, Eugene, Oreg.) at 1.6 μM for 60′ at room temperature. The loaded cells were then washed twice with 90 μl/well of wash buffer (1×HBSS, 20 mM HEPES, 2.5 mM probenecid).
Receptor-stimulated intracellular calcium responses were detected using FLIPR® by monitoring increases in the Fura-2 fluorescence response.
Test compounds were screened for MCH1R activity in the FLIPR® for both agonist and antagonist action. Agonist mode challenges were conducted at a maximum gradient concentration of 1 μM. Antagonist activity was tested by 10 min pre-incubation of cells at a compound concentration of defined to be 300× the EC50 of MCH (typically 1 μM), with subsequent introduction of MCH at a concentration 5-fold of EC50 as determined in preliminary experiments.
Schild experiments were conducted on the FLIPR® for selected compounds by co-administering antagonist compounds together with MCH peptide. Several fixed concentrations of antagonist compounds were prepared in 10-fold increments, and presented to the cells in a gradient of increasing MCH concentration. Values for compound pA2 were calculated by linear regression of MCH EC50s as a function of antagonist concentration.

[2] = biological target: T4, human MCH 1 receptor (hMCH1R) (Homo sapiens, UniProt Q99705); assay: Ligand binding assay (125I native-MCH), hMCH; conditions: hMCH1R expressed in HEK 293, membranes, 0.2 nM 125I native-MCH
T4 construct: expressed in transfected cells; host or cells: HEK 293 (membrane preparation)
T4 sequence (Q99705 whole entry): as the sequence (Q99705 whole entry) above
Experimental: as §1, §2, §3

T1 sequence (P97639 whole entry): as the sequence (P97639 whole entry) above

SMILES	IC50 ([1]; threshold 100 nM or less) [µM]	IC50 ([1]; threshold 100 μM or less) [µM]	Ki (human MCH receptor; threshold 100 nM or less) [µM]	Ki (human MCH receptor; threshold 100 μM or less) [µM]	Ki (rat MCH1 receptor; threshold 100 nM or less) [µM]	Ki (rat MCH1 receptor; threshold 100 μM or less) [µM]	IC50 ([2]; threshold 100 nM or less) [µM]	IC50 ([2]; threshold 100 μM or less) [µM]
Cc1ccc(Oc2ccc(C(=O)NCCN3CCCC3)cc2NC(=O)CCc2ccccc2)cc1C [Compound 5, 4-[(3,4-dimethylphenyl)oxy]-3-[(3-phenylpropanoyl)amino]-N-(2-(1-pyrrolidinyl)ethyl)benzamide]				≤ 100		≤ 100		≤ 100
Cc1cc(Oc2ccc(C(=O)NCCN3CCCC3)cc2NC(=O)Nc2cccc(F)c2)ccc1F [Compound 51, 4-(4-fluoro-3-methylphenoxy)-3-[3-(3-fluorophenyl)ureido]-N-(2-pyrrolidin-1-yl-ethyl)benzamide]	≤ 0.1	≤ 100	≤ 0.1	≤ 100		≤ 100		
Cc1ccc(Oc2ccc(C(=O)NCCN3CCCC3)cc2NC(=O)Nc2cccc(F)c2)cc1 [Compound 56, 3-[3-(3-fluorophenyl)ureido]-N-(2-pyrrolidin-1-yl-ethyl)-4-p-tolyloxybenzamide]	≤ 0.1	≤ 100	≤ 0.1	≤ 100		≤ 100		
Cc1cccc(Oc2ccc(C(=O)NCCN3CCCC3)cc2NC(=O)Nc2cccc(F)c2)c1 [Compound 57]	≤ 0.1	≤ 100	≤ 0.1	≤ 100		≤ 100		
Cc1ccc(Oc2ccc(CNCCN3CCCC3)cc2NC(=O)Nc2cccc(F)c2)cc1C [Compound 64, 1-{2-(3,4-dimethylphenoxy)-5-[(2-pyrrolidin-1-yl-ethylamino)-methyl]phenyl}-3-(3-fluorophenyl)urea]		≤ 100		≤ 100		≤ 100		≤ 100
O=C(Nc1cccc(F)c1)Nc1cc(C(=O)NCCN2CCCC2)ccc1Oc1ccc(F)cc1 [Compound 54, 4-(4-fluorophenoxy)-3-[3-(3-fluorophenyl)ureido]-N-(2-pyrrolidin-1-yl-ethyl)benzamide]	≤ 0.1	≤ 100		≤ 100		≤ 100		
Cc1ccc(Oc2ccc(C(=O)NCCN3CCCC3)cc2NC(=O)NCc2ccccc2)cc1C [Compound 6, 4-[(3,4-dimethylphenyl)oxy]-3-({[(phenylmethyl)amino]carbonyl}amino)-N-(2-(1-pyrrolidinyl)ethyl)benzamide]			≤ 0.1	≤ 100	≤ 0.1	≤ 100	≤ 0.1	≤ 100
O=C(Nc1cccc(F)c1)Nc1cc(C(=O)NCCN2CCCC2)ccc1Oc1ccc(F)c(F)c1 [Compound 53, 4-(3,4-difluorophenoxy)-3-[3-(3-fluorophenyl)ureido]-N-(2-pyrrolidin-1-yl-ethyl)benzamide]	≤ 0.1	≤ 100		≤ 100		≤ 100		

Other lines, results leading:

IC50 ([1]; threshold 100 nM or less) [µM]	IC50 ([1]; threshold 100 μM or less) [µM]	Ki (human MCH receptor; threshold 100 nM or less) [µM]	Ki (human MCH receptor; threshold 100 μM or less) [µM]	Ki (rat MCH1 receptor; threshold 100 nM or less) [µM]	Ki (rat MCH1 receptor; threshold 100 μM or less) [µM]	IC50 ([2]; threshold 100 nM or less) [µM]	IC50 ([2]; threshold 100 μM or less) [µM]	SMILES
≤ 0.1	≤ 100	≤ 0.1	≤ 100	≤ 0.1	≤ 100	≤ 0.1	≤ 100	Cc1ccc(Oc2ccc(C(=O)NCCN3CCCC3)cc2NC(=O)Nc2ccccc2Cl)cc1C [Compound 41, 3-[3-(2-chlorophenyl)ureido]-4-(3,4-dimethylphenoxy)-N-(2-pyrrolidin-1-yl-ethyl)benzamide]
≤ 0.1	≤ 100	≤ 0.1	≤ 100	≤ 0.1	≤ 100	≤ 0.1	≤ 100	Cc1ccc(Oc2ccc(C(=O)NCCN3CCCC3)cc2NC(=O)Nc2ccc(Br)cc2)cc1C [Compound 38, 3-[3-(4-bromophenyl)ureido]-4-(3,4-dimethylpherioxy)-N-(2-pyrrolidin-1-yl-ethyl)benzamide]
≤ 0.1	≤ 100	≤ 0.1	≤ 100	≤ 0.1	≤ 100	≤ 0.1	≤ 100	COc1cccc(NC(=O)Nc2cc(C(=O)NCCN3CCCC3)ccc2Oc2ccc(C)c(C)c2)c1 [Compound 40, 4-(3,4-dimethylphenoxy)-3-[3-(3-methoxyphenyl)ureido]-N-(2-pyrrolidin-1-yl-ethyl)benzamide]
	≤ 100		≤ 100		≤ 100	≤ 0.1	≤ 100	Cc1ccc(Oc2ccc(C(=O)NCCN3CCCC3)cc2NC(=O)Nc2c(C(C)C)cccc2C(C)C)cc1C [Compound 37, 3-[3-(2,6-diisopropylphenyl)ureido]-4-(3,4-dimethylphenoxy)-N-(2-pyrrolidin-1-yl-ethyl)benzamide]
	≤ 100	≤ 0.1	≤ 100		≤ 100	≤ 0.1	≤ 100	Cc1ccc(Oc2ccc(C(=O)NCCN3CCCC3)cc2NC(=O)Nc2ccc(C(C)C)cc2)cc1C [Compound 34, 4-(3,4-dimethylphenoxy)-3-[3-(4-isopropylphenyl)ureido]-N-(2-pyrrolidin-1-yl-ethyl)benzamide]
≤ 0.1	≤ 100		≤ 100		≤ 100	≤ 0.1	≤ 100	Cc1ccc(Oc2ccc(C(=O)NCCN3CCCC3)cc2NC(=O)Nc2cc(Cl)cc(Cl)c2)cc1C [Compound 59, 3-[3-(3,5-dichlorophenyl)ureido]-4-(3,4-dimethylphenoxy)-N-(2-pyrrolidin-1-yl-ethyl)benzamide]
≤ 0.1	≤ 100	≤ 0.1	≤ 100	≤ 0.1	≤ 100	≤ 0.1	≤ 100	Cc1ccc(Oc2ccc(C(=O)NCCN3CCCC3)cc2NC(=O)Nc2ccccc2)cc1C [Compound 1, 4-[(3,4-dimethylphenyl)oxy]-3-{[(phenylamino)carbonyl]amino}-N-(2-(1-pyrrolidinyl)ethyl)benzamide]
≤ 0.1	≤ 100		≤ 100		≤ 100	≤ 0.1	≤ 100	Cc1ccc(Oc2ccc(C(=O)NCCN3CCCC3)cc2NC(=O)Nc2cc(F)cc(F)c2)cc1C [Compound 58, 3-[3-(3,5-difluorophenyl)ureido]-4-(3,4-dimethylphenoxy)-N-(2-pyrrolidin-1-yl-ethyl)benzamide]
